Source: BindingDB's records for patent US8962648 (Oncotherapy Science, 2015)
“And” between values parts separate entries of the source, which are not always exact repeats. Equal values may be shown once.

Target: T1, Lymphokine-activated killer T-cell-originated protein kinase (Homo sapiens, UniProt Q96KB5)
T1 sequence (Q96KB5 whole entry): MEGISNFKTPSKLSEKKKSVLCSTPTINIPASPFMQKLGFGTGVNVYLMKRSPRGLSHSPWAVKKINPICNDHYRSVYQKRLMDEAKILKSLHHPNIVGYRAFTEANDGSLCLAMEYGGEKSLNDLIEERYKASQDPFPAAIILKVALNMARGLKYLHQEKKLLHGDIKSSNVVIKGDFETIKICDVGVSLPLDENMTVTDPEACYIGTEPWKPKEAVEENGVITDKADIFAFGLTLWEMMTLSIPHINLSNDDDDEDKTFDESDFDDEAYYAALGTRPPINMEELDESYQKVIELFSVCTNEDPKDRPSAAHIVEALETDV
Test: Kinase Assay
Settings: pH 7.4; 25 °C
Protocol: PBK activity was determined in the presence or absence of compounds using fluorescein isothiocyanate-labeled (FITC-labeled) histone H3 peptide as a substrate. […] The serially diluted compounds, 0.8 ng/micro-L PBK (Carna Biosciences) and 100 nM FITC-labeled histone H3 peptide were reacted in a reaction buffer (20 mM HEPES, 0.01% Tween-20, 0.3 mM MgCl2, 2 mM dithiothreitol, 50 micro-M ATP, pH 7.4) at room temperature for 1 hour. The reaction was stopped by the addition of three fold assay volume of progressive binding solution. Following 0.5 hour incubation at room temperature.

Compound | IC50
CC(CBr)NS(=O)(=O)c1ccc(-c2c(O)ccc3[nH]c(=O)c4sccc4c23)cc1 (centres undefined) [US8962648, 1062] | 31 nM
O=c1[nH]c2ccc(O)c(-c3ccc(S(=O)(=O)NCCBr)c(F)c3)c2c2ccsc12 [US8962648, 297] | 13 nM
CC[C@H](NC)c1ccc(-c2c(O)cc(Cl)c3[nH]c(=O)c4sccc4c23)cc1 [US8962648, 1154] | 9.4 nM
CNCCc1ccc(-c2c(O)cc(Cl)c3[nH]c(=O)c4sccc4c23)cc1 [US8962648, 1165] | 58 nM
Nc1ccc(-c2c(O)ccc3[nH]c(=O)c4sccc4c23)cc1O [US8962648, 217] | 2.3 nM
Cc1cc2c(s1)c(=O)[nH]c1c(C)cc(O)c(-c3ccc([C@@H](C)CN)cc3)c12 [US8962648, 1340] | 12 nM
CC[C@@H](c1ccc(-c2c(O)ccc3[nH]c(=O)c4sccc4c23)cc1)N(C)C [US8962648, 1128] | 2.2 nM
C[C@H](c1ccc(-c2c(O)ccc3[nH]c(=O)c4sccc4c23)cc1)N(C)C [US8962648, 272] | 0.88 nM
CC(N)c1ccc(-c2c(O)ccc3[nH]c(=O)c4sccc4c23)cc1 (centres undefined) [US8962648, 195] | 0.73 nM
COc1ccc2[nH]c(=O)c3sccc3c2c1-c1ccc(C(C)CN)cc1 (centres undefined) [US8962648, 373] | 3.2 nM
N#CCCc1ccc(-c2c(O)ccc3[nH]c(=O)c4sccc4c23)cc1 [US8962648, 290] | 3.2 nM
NCCc1ccc(-c2c(O)cc(Cl)c3[nH]c(=O)c4sccc4c23)cc1Cl [US8962648, 1268] | 3.9 nM
CCC(C#N)c1ccc(-c2c(O)ccc3[nH]c(=O)c4sccc4c23)cc1 (centres undefined) [US8962648, 1162] | 13 nM
N#CCc1ccc(-c2c(O)ccc3[nH]c(=O)c4sccc4c23)cc1 [US8962648, 81] | 12 nM
CCC(CN)c1ccc(-c2c(OC)cc(C)c3[nH]c(=O)c4sccc4c23)cc1 (centres undefined) [US8962648, 1277] | 63 nM
COc1cc(C)c2[nH]c(=O)c3sccc3c2c1-c1ccc(C2(CN)CCC2)cc1 [US8962648, 1297] | 35 nM
COc1cc(Cl)c2[nH]c(=O)c3sccc3c2c1-c1ccc(C2(CN)CCC2)cc1 [US8962648, 1321] | 96 nM
N#CCc1ccc(-c2c(O)ccc3[nH]c(=O)c4sccc4c23)cc1F [US8962648, 261] | 15 nM
NCC1(c2ccc(-c3c(O)ccc4[nH]c(=O)c5sccc5c34)cc2)CC1 [US8962648, 348] | 1.9 nM
CCC(N)c1ccc(-c2c(O)ccc3[nH]c(=O)c4sccc4c23)cc1 (centres undefined) [US8962648, 336] | 0.82 nM
C[C@@H](NS(C)(=O)=O)c1ccc(-c2c(O)ccc3[nH]c(=O)c4sccc4c23)cc1 [US8962648, 301] | 3.2 nM
CNC[C@H](C)c1ccc(-c2c(OC)ccc3[nH]c(=O)c4sccc4c23)cc1 [US8962648, 1189] | 3 nM
CN[C@@H](C)c1ccc(-c2c(OC)ccc3[nH]c(=O)c4sccc4c23)cc1 [US8962648, 1064] | 2.5 nM
Cc1cc(O)c(-c2ccc(C(C)(C)CN)c(F)c2)c2c1[nH]c(=O)c1sccc12 [US8962648, 1278] | 22 nM
NCCc1cc(Br)c(-c2c(O)ccc3[nH]c(=O)c4sccc4c23)cc1O [US8962648, 1224] | 6.4 nM

Compound | IC50
CC(c1ccc(-c2c(O)ccc3[nH]c(=O)c4sccc4c23)cc1)N1CCCCC1 (centres undefined) [US8962648, 262] | 4.3 nM
CN(C)C1CCCN(CCCc2c(O)ccc3[nH]c(=O)c4sccc4c23)C1 (centres undefined) [US8962648, 298] | 83 nM
CN[C@H](C)c1ccc(-c2c(O)cc(C)c3[nH]c(=O)c4sccc4c23)cc1 [US8962648, 1262] | 12 nM
CCC(CN)c1ccc(-c2c(O)cc(Cl)c3[nH]c(=O)c4sccc4c23)cc1 (centres undefined) [US8962648, 1312] | 19 nM
COc1ccc2[nH]c(=O)c3sccc3c2c1-c1ccc(C(C)N2CCCC2)cc1 (centres undefined) [US8962648, 216] | 21 nM
CC(NS(C)(=O)=O)c1ccc(-c2c(O)ccc3[nH]c(=O)c4sccc4c23)cc1 (centres undefined) [US8962648, 347] | 3.7 nM and 2 nM
Cc1cc(O)c(-c2ccc(CCN)c(Cl)c2)c2c1[nH]c(=O)c1sccc12 [US8962648, 1264] | 3 nM
CCN[C@H](CC)c1ccc(-c2c(O)ccc3[nH]c(=O)c4sccc4c23)cc1 [US8962648, 1127] | 1.4 nM
CCC(CN)c1ccc(-c2c(O)ccc3[nH]c(=O)c4sccc4c23)cc1 (centres undefined) [US8962648, 1309] | 0.74 nM
CC(N)c1ccc(-c2c(O)ccc3[nH]c(=O)c4sccc4c23)cc1F (centres undefined) [US8962648, 359] | 0.92 nM
Cc1cc(-c2c(O)ccc3[nH]c(=O)c4sccc4c23)ccc1NS(C)(=O)=O [US8962648, 254] | 3 nM
CC(CN)c1ccc(-c2c(O)ccc3[nH]c(=O)c4sccc4c23)cc1F (centres undefined) [US8962648, 1174] | 1.5 nM
CNC[C@@H](C)c1ccc(-c2c(O)cc(C)c3[nH]c(=O)c4sccc4c23)cc1 [US8962648, 1215] | 60 nM
CC[C@H](N)c1ccc(-c2c(OC)ccc3[nH]c(=O)c4sccc4c23)cc1 [US8962648, 1121] | 2.9 nM
CN[C@@H](C)c1ccc(-c2c(O)ccc3[nH]c(=O)c4sccc4c23)cc1 [US8962648, 1082] | 1.1 nM
COc1cc(C)c2[nH]c(=O)c3sc(Cl)cc3c2c1-c1ccc([C@@H](C)CN)cc1 [US8962648, 1354] | 11 nM
CC(C)(CN)c1ccc(-c2c(O)cc(Br)c3[nH]c(=O)c4sccc4c23)cc1 [US8962648, 1247] | 72 nM
CC(c1ccc(-c2c(O)ccc3[nH]c(=O)c4sccc4c23)cc1)N(C)C (centres undefined) [US8962648, 192] | 1.6 nM and 1.9 nM
CC(C)(N)c1ccc(-c2c(O)cc(Cl)c3[nH]c(=O)c4sccc4c23)cc1 [US8962648, 334] | 10 nM
CCNCc1ccc(-c2c(OC)ccc3[nH]c(=O)c4sccc4c23)cc1 [US8962648, 269] | 6 nM
CC(c1ccc(-c2c(O)c(F)c(F)c3[nH]c(=O)c4sccc4c23)cc1)N(C)C (centres undefined) [US8962648, 341] | 34 nM
NS(=O)(=O)c1ccc(-c2c(O)ccc3[nH]c(=O)c4sccc4c23)cc1 [US8962648, 65] | 1.8 nM
O=c1[nH]c2ccc(O)c(-c3ccc4cn[nH]c4c3)c2c2ccsc12 [US8962648, 61] | 3.5 nM
CC[C@@H](N)c1ccc(-c2c(O)cc(C)c3[nH]c(=O)c4sccc4c23)cc1 [US8962648, 1157] | 18 nM
CCN(CC)Cc1ccc(-c2c(O)ccc3[nH]c(=O)c4sccc4c23)cc1 [US8962648, 184] | 7.7 nM

Compound | IC50
CC(C)(CN)c1ccc(-c2c(O)ccc3[nH]c(=O)c4sccc4c23)cc1 [US8962648, 277] | 0.67 nM
NCCc1ccc(-c2c(O)ccc3[nH]c(=O)c4sccc4c23)cc1 [US8962648, 176] | 1.2 nM and 1.1 nM
Cc1cc2c(s1)c(=O)[nH]c1ccc(O)c(-c3ccc(CN)cc3)c12 [US8962648, 95] | 4.4 nM
CN(C)CC(C)(C)c1ccc(-c2c(O)ccc3[nH]c(=O)c4sccc4c23)cc1 [US8962648, 308] | 2.8 nM
C[C@@H](N)c1ccc(-c2c(O)cc(Br)c3[nH]c(=O)c4sccc4c23)cc1 [US8962648, 1123] | 33 nM
CC(N)c1ccc(-c2c(O)cc(Br)c3[nH]c(=O)c4sccc4c23)cc1 (centres undefined) [US8962648, 1032] | 47 nM
COc1ccc2[nH]c(=O)c3sccc3c2c1-c1ccc(CCN)c(F)c1 [US8962648, 265] | 3.8 nM
NCc1ccc(-c2c(O)ccc3[nH]c(=O)c4sccc4c23)s1 [US8962648, 266] | 0.78 nM
CC[C@H](c1ccc(-c2c(O)ccc3[nH]c(=O)c4sccc4c23)cc1)N(C)C [US8962648, 1151] | 2.5 nM
CC[C@@H](N)c1ccc(-c2c(O)cc(Cl)c3[nH]c(=O)c4sccc4c23)cc1 [US8962648, 1159] | 26 nM
O=c1[nH]c2ccc(O)c(-c3ccc(CN4CCC(O)C4)c(F)c3)c2c2ccsc12 (centres undefined) [US8962648, 278] | 0.97 nM
CCNC(C)c1ccc(-c2c(O)ccc3[nH]c(=O)c4sccc4c23)cc1 (centres undefined) [US8962648, 385] | 3.9 nM
CC[C@@H](N)c1ccc(-c2c(O)cc(Br)c3[nH]c(=O)c4sccc4c23)cc1 [US8962648, 1150] | 47 nM
CNCCc1ccc(-c2c(O)cc(Br)c3[nH]c(=O)c4sccc4c23)cc1F [US8962648, 1245] | 45 nM
Cc1cc(O)c(-c2ccc(C3(CN)CC3)cc2)c2c1[nH]c(=O)c1sccc12 [US8962648, 1254] | 9.6 nM
O=c1[nH]c2ccc(O)c(-c3ccc4c(c3)CNCC4)c2c2ccsc12 [US8962648, 353] | 2 nM
COc1ccc2[nH]c(=O)c3sccc3c2c1-c1ccc([C@H](C)N)cc1 [US8962648, 232] | 7.4 nM
COc1cc(Br)c2[nH]c(=O)c3sccc3c2c1-c1ccc(C2(CN)CC2)cc1 [US8962648, 1391] | 70 nM
CCC(CN)c1ccc(-c2c(O)cc(C)c3[nH]c(=O)c4sccc4c23)cc1 (centres undefined) [US8962648, 1291] | 15 nM
NCc1ccc(-c2c(O)cc(Br)c3[nH]c(=O)c4sccc4c23)cc1 [US8962648, 270] | 31 nM
CCC(c1ccc(-c2c(O)ccc3[nH]c(=O)c4sccc4c23)cc1)N(C)C (centres undefined) [US8962648, 339] | 1.9 nM
COc1cc(Cl)c2[nH]c(=O)c3sccc3c2c1-c1ccc(CCN)c(F)c1 [US8962648, 1218] | 87 nM
COc1ccc2[nH]c(=O)c3sccc3c2c1-c1ccc(CN(C)C)cc1 [US8962648, 164] | 11 nM
CC(O)c1ccc(-c2c(O)ccc3[nH]c(=O)c4sccc4c23)cc1 (centres undefined) [US8962648, 313] | 2 nM
